Test results reported in patent US6783952B1, “Secreted soluble α2δ-2, α2δ-3 or α2δ-4 calcium channel subunit polypeptides and screening assays using same” (Warner-Lambert Company, priority 1999, dated 2004).

Molecular target: [^3H]gabapentin site in porcine cortical membranes (Sus scrofa, UniProt O77773)
Experiment: [3H]gabapentin binding site competition in porcine cortical membranes
Settings: read-out: IC50 arithmetic mean (N = 3) ± S.E.M., binding affinity for the [3H]gabapentin site, mean of n = 3 ± S.E.M.

Sequence of [^3H]gabapentin site in porcine cortical membranes (O77773 25-1091): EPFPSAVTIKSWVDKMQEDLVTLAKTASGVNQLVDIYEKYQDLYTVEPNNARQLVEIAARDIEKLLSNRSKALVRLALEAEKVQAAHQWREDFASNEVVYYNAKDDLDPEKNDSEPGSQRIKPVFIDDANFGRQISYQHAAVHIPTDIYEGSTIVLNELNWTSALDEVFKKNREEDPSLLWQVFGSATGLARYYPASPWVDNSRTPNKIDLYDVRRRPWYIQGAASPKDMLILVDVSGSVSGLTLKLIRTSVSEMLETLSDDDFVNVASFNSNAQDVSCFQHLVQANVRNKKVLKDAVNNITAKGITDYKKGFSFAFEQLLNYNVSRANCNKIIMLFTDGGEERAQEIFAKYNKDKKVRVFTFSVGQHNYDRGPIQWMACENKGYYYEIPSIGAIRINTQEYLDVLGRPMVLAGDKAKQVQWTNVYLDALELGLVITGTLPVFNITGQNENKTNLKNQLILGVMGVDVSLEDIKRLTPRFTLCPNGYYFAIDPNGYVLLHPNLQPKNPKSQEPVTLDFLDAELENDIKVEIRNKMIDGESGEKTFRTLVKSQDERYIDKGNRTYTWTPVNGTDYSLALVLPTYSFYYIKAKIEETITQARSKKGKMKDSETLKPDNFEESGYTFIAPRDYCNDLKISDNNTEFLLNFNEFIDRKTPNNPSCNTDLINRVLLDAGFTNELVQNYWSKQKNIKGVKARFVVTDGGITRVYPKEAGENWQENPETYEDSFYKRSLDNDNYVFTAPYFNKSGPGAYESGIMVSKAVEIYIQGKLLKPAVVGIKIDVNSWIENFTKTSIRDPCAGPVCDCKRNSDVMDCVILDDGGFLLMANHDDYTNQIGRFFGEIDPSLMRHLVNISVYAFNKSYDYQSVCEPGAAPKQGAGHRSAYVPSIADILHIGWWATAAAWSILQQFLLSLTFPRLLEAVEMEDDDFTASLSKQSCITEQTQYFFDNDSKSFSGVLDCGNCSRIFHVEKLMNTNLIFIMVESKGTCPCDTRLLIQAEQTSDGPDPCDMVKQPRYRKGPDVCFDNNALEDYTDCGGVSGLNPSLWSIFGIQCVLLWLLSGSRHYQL

| SMILES | IC50 [nM] |
| --- | --- |
| CC[C@@H](C)[C@H](N)C(=O)O [L-Allo-Isoleucine] | 32.8 ± 6 |
| CC[C@H](C)[C@H](N)C(=O)O [L-Isoleucine] | 68.8 ± 1.9 |
| CC(C)C[C@H](N)C(=O)O [L-Leucine] | 61.3 ± 20.9 |
| CSCC[C@H](N)C(=O)O [L-Methionine] | 49.6 ± 10 |
| CCCC[C@H](N)C(=O)O [L-Norleucine] | 23.6 ± 6.7 |
| N[C@@H](Cc1ccccc1)C(=O)O [L-Phenylalanine] | 351 ± 89 |
| CC(C)[C@H](N)C(=O)O [L-Valine] | 330 ± 18 |
